According to ChEMBL document CHEMBL6109078, “Pyrylium derivatives as outer membrane permeabilizers against MDR gram-negative bacteria via multi-target mode of action” (Eur J Med Chem, 2025):
Activity calls are given as the source filed them. The calls are words filed in the database; no cut-off is given here.

Key:
[1] = tested on: Escherichia coli; test: Synergistic antibacterial activity against Escherichia coli ATCC 35218 assessed as inhibition of bacterial growth in presence of polymyxin B by checkerboard assay; type: functional
[2] = tested on: Escherichia coli; test: Synergistic antibacterial activity against Escherichia coli CG-4 expressing MCR-1 and NDM-1 assessed as fractional inhibitory concentration index in presence of […] by checkerboard assay; type: functional
[3] = tested on: Cell membrane; test: Induction of outer membrane damage in Escherichia coli ATCC 25922 assessed as local fractures at 12.5 microg/ml incubated for 1 hrs by TEM analysis; details: dose 12.5 µg/ml
[4] = tested on: Acinetobacter baumannii; test: Synergistic antibacterial activity against multi-drug resistant Acinetobacter baumannii clinical isolate 43 assessed as inhibition of bacterial growth in presence of polymyxin B by checkerboard assay; type: functional
[5] = tested on: Acinetobacter baumannii; test: Synergistic antibacterial activity against multi-drug resistant Acinetobacter baumannii clinical isolate 5 assessed as inhibition of bacterial growth by measuring polymyxin B MIC by checkerboard assay; type: functional
[6] = tested on: Cell membrane; test: Disruption of outer membrane integrity in Escherichia coli ATCC 25922 assessed as increase in EtBr uptake by fluorescence plate reader analysis
[7] = tested on: Acinetobacter baumannii; test: Synergistic antibacterial activity against multi-drug resistant Acinetobacter baumannii clinical isolate 1 assessed as inhibition of bacterial growth in presence of polymyxin B by checkerboard assay; type: functional
[8] = Binding affinity to His-tagged LptC (unknown origin) extracted from Escherichia coli BL21 (DE3) cells assessed as dissociation constant by BLI analysis; design: species or system Bacteria
[9] = tested on: Escherichia coli; test: Synergistic antibacterial activity against multi-drug resistant Escherichia coli clinical isolate 1 assessed as fractional inhibitory concentration index in presence of polymyxin B by checkerboard assay; type: functional
[10] = tested on: Escherichia coli; test: Synergistic antibacterial activity against multi-drug resistant Escherichia coli clinical isolate 1 assessed as fractional inhibitory concentration index in presence of gentamycin by checkerboard assay; type: functional
[11] = tested on: Cell membrane; test: Induction of outer membrane damage in Escherichia coli ATCC 25922 assessed as loose outer membrane with decrease in electron cloud density at 12.5 microg/ml incubated for 1 hrs by TEM analysis; details: dose 12.5 µg/ml
[12] = tested on: Acinetobacter baumannii; test: Antibacterial activity against multi-drug resistant Acinetobacter baumannii clinical isolate 2 assessed as inhibition of bacterial growth by CLSI protocol based method; type: functional
[13] = tested on: Escherichia coli; test: Synergistic antibacterial activity against multi-drug resistant Escherichia coli clinical isolate 1 assessed as fractional inhibitory concentration index in presence of amikacin by checkerboard assay; type: functional
[14] = tested on: Pseudomonas aeruginosa; test: Antibacterial activity Pseudomonas aeruginosa ATCC 27853 assessed as inhibition of bacterial growth by CLSI protocol based method; type: functional
[15] = tested on: Cell membrane; test: Induction of outer membrane damage in Escherichia coli ATCC 25922 assessed as local damage at 12.5 microg/ml incubated for 1 hrs by TEM analysis; details: dose 12.5 µg/ml
[16] = tested on: Acinetobacter baumannii; test: Synergistic antibacterial activity against multi-drug resistant Acinetobacter baumannii clinical isolate 1 assessed as fractional inhibitory concentration index in presence of amikacin by checkerboard assay; type: functional
[17] = tested on: Pseudomonas aeruginosa; test: Antibacterial activity Pseudomonas aeruginosa PAO1 assessed as inhibition of bacterial growth by CLSI protocol based method; type: functional
[18] = tested on: Escherichia coli; test: Antibacterial activity against multi-drug resistant Escherichia coli clinical isolate 1 assessed as inhibition of bacterial growth by CLSI protocol based method; type: functional
[19] = tested on: Acinetobacter baumannii; test: Antibacterial activity against Acinetobacter baumannii ATCC 19606 assessed as bacterial killing at 100 microg/ml measured within 4 to 12 hrs by time-kill kinetics analysis; type: functional; details: dose 100 µg/ml; time 4-12 hrs
[20] = tested on: Acinetobacter baumannii; test: Synergistic antibacterial activity against multi-drug resistant Acinetobacter baumannii clinical isolate 43 assessed as fractional inhibitory concentration index in presence of polymyxin B by checkerboard assay; type: functional
[21] = Binding affinity to His-tagged LptA (unknown origin) extracted from Escherichia coli BL21 (DE3) cells assessed as dissociation constant by BLI analysis; design: species or system Bacteria
[22] = tested on: Escherichia coli; test: Synergistic antibacterial activity against Escherichia coli CG-4 expressing MCR-1 and NDM-1 assessed as inhibition of bacterial growth in presence of polymyxin B by checkerboard assay; type: functional
[23] = tested on: Escherichia coli; test: Antibacterial activity against Escherichia coli ATCC 25922 assessed as inhibition of bacterial growth by measuring fold increase in MIC incubated for 16 to 18 hrs in presence of Mg2+; type: functional; details: time 16-18 hrs
[24] = tested on: Escherichia coli; test: Induction of morphological changes in Escherichia coli ATCC 25922 assessed as appearance of longer bacterial cells at 6.25 microg/ml incubated for 1 hrs by optical microscopic analysis; type: functional, organism-based; details: dose 6.25 µg/ml
[25] = tested on: Escherichia coli; test: Antibacterial activity against Escherichia coli ATCC 25922 assessed as bacterial killing at 100 microg/ml measured within 4 to 12 hrs by time-kill kinetics analysis; type: functional; details: dose 100 µg/ml; time 4-12 hrs
[26] = tested on: Acinetobacter baumannii; test: Synergistic antibacterial activity against multi-drug resistant Acinetobacter baumannii clinical isolate 43 assessed as inhibition of bacterial growth by measuring polymyxin B MIC by checkerboard assay; type: functional
[27] = tested on: Escherichia coli; test: Synergistic antibacterial activity against Escherichia coli ATCC 25922 assessed as fractional inhibitory concentration index in presence of amikacin by checkerboard assay; type: functional
[28] = tested on: Escherichia coli; test: Synergistic antibacterial activity against Escherichia coli ATCC 25922 assessed as fractional inhibitory concentration index in presence of polymyxin B by checkerboard assay; type: functional
[29] = tested on: Acinetobacter baumannii; test: Synergistic antibacterial activity against multi-drug resistant Acinetobacter baumannii clinical isolate 43 assessed as fractional inhibitory concentration index in presence of gentamycin by checkerboard assay; type: functional
[30] = tested on: Escherichia coli; test: Induction of morphological changes in Escherichia coli ATCC 25922 assessed as appearance of filamentous bacterial cells at 6.25 microg/ml incubated for 1 hrs by optical microscopic analysis; type: functional, organism-based; details: dose 6.25 µg/ml
[31] = tested on: Acinetobacter baumannii; test: Antibacterial activity against multi-drug resistant Acinetobacter baumannii clinical isolate 51 assessed as inhibition of bacterial growth by CLSI protocol based method; type: functional
[32] = tested on: Cell membrane; test: Induction of outer membrane damage in Escherichia coli ATCC 25922 assessed as accumulation of membrane-like structures near inner membrane at 12.5 microg/ml incubated for 1 hrs by TEM analysis; details: dose 12.5 µg/ml
[33] = tested on: Escherichia coli; test: Antibacterial activity against Escherichia coli ATCC 25922 infected in Galleria mellonella larvae assessed as survival rate at 50 microg/ml measured 96 hrs post-inoculation relative to control; type: functional
[34] = tested on: Escherichia coli; test: Synergistic antibacterial activity against Escherichia coli CG-4 expressing MCR-1 and NDM-1 assessed as fractional inhibitory concentration index in presence of polymyxin B by checkerboard assay; type: functional
[35] = tested on: Escherichia coli; test: Antibacterial activity against ESBL positive Escherichia coli ATCC 35218 assessed as inhibition of bacterial growth by CLSI protocol based method; type: functional
[36] = tested on: Escherichia coli; test: Synergistic antibacterial activity against Escherichia coli ATCC 35218 assessed as fractional inhibitory concentration index in presence of polymyxin B by checkerboard assay; type: functional
[37] = tested on: Acinetobacter baumannii; test: Antibacterial activity against multi-drug resistant Acinetobacter baumannii clinical isolate 10 assessed as inhibition of bacterial growth by CLSI protocol based method; type: functional
[38] = tested on: Escherichia coli; test: Synergistic antibacterial activity against multi-drug resistant Escherichia coli clinical isolate 1 assessed as inhibition of bacterial growth by measuring polymyxin B MIC by checkerboard assay; type: functional
[39] = tested on: Escherichia coli; test: Synergistic antibacterial activity against Escherichia coli ATCC 25922 assessed as fractional inhibitory concentration index in presence of gentamycin by checkerboard assay; type: functional
[40] = tested on: Escherichia coli; test: Antibacterial activity against Escherichia coli ATCC 25922 assessed as inhibition of bacterial growth by CLSI protocol based method; type: functional

CCN(CC)c1ccc(/C=C/c2cc(C(C)(C)C)[o+]c(C(C)(C)C)c2)cc1.O=S(=O)([O-])C(F)(F)F
MIC [1]: 1.56 µg/mL
fractional inhibitory concentration index (FICI) [2]: 0.125
Activity [3]: Active
MIC [4]: 6.25 µg/mL
MIC [5]: 0.003 µg/mL
Activity [6]: Dose-dependent-effect
MIC [7]: 1.56 µg/mL
Kd [8]: 0.49 µM
fractional inhibitory concentration index (FICI) [9]: 0.031
fractional inhibitory concentration index (FICI) [10]: 0.125
Activity [11]: Active
MIC [12]: 6.25 µg/mL
fractional inhibitory concentration index (FICI) [13]: 0.125
MIC [14]: > 100 µg/mL
Activity [15]: Active
fractional inhibitory concentration index (FICI) [16]: 0.125
MIC [17]: > 100 µg/mL
MIC [18]: ≥ 100 µg/mL
Activity [19]: 100%
fractional inhibitory concentration index (FICI) [20]: 0.5
Kd [21]: 0.48 µM
MIC [22]: 3.13 µg/mL
fold change (FC) [23]: 2
Activity [24]: Active
Activity [25]: 100%
MIC [26]: 1 10^-4 ug/ml
fractional inhibitory concentration index (FICI) [27]: 0.125
fractional inhibitory concentration index (FICI) [28]: 0.266
fractional inhibitory concentration index (FICI) [29]: 0.125
Activity [30]: Active
MIC [31]: 12.5 µg/mL
Activity [32]: Active
survival at 50 µg/mL [33]: 40%
fractional inhibitory concentration index (FICI) [34]: 0.375
MIC [35]: 6.25 µg/mL
fractional inhibitory concentration index (FICI) [36]: 0.375
MIC [37]: 12.5 µg/mL
MIC [38]: 0.2 µg/mL
fractional inhibitory concentration index (FICI) [39]: 0.125
MIC [40]: 6.25 µg/mL

CC(C)(C)c1cc(/C=C/c2ccc(N3CCCC3)cc2)cc(C(C)(C)C)[o+]1.O=S(=O)([O-])C(F)(F)F
MIC [1]: 3.13 µg/mL
fractional inhibitory concentration index (FICI) [2]: 0.125
Activity [3]: Active
MIC [4]: 6.25 µg/mL
MIC [5]: 0.003 µg/mL
Activity [6]: Dose-dependent-effect
MIC [7]: 3.12 µg/mL
Kd [8]: 63.7 µM
fractional inhibitory concentration index (FICI) [9]: 0.063
fractional inhibitory concentration index (FICI) [10]: 0.125
Activity [11]: Active
MIC [12]: 6.25 µg/mL
fractional inhibitory concentration index (FICI) [13]: 0.125
MIC [14]: > 100 µg/mL
Activity [15]: Active
fractional inhibitory concentration index (FICI) [16]: 0.125
MIC [17]: > 100 µg/mL
MIC [18]: ≥ 100 µg/mL
Activity [19]: 100%
fractional inhibitory concentration index (FICI) [20]: 0.5
Kd [21]: 15 µM
MIC [22]: 0.78 µg/mL
fold change (FC) [23]: 2
Activity [24]: Active
Activity [25]: 100%
MIC [26]: 1 10^-4 ug/ml
fractional inhibitory concentration index (FICI) [27]: 0.125
fractional inhibitory concentration index (FICI) [28]: 0.156
fractional inhibitory concentration index (FICI) [29]: 0.125
Activity [30]: Active
MIC [31]: 12.5 µg/mL
Activity [32]: Active
survival at 50 µg/mL [33]: 40%
fractional inhibitory concentration index (FICI) [34]: 0.188
MIC [35]: 6.25 µg/mL
fractional inhibitory concentration index (FICI) [36]: 0.375
MIC [37]: 6.25 µg/mL
MIC [38]: 0.39 µg/mL
fractional inhibitory concentration index (FICI) [39]: 0.125
MIC [40]: 12.5 µg/mL

CN1CCOc2cc(/C=C/c3cc(C(C)(C)C)[o+]c(C(C)(C)C)c3)ccc21.O=S(=O)([O-])C(F)(F)F
MIC [1]: 6.25 µg/mL
fractional inhibitory concentration index (FICI) [2]: 0.125
MIC [4]: 25 µg/mL
MIC [5]: 0.006 µg/mL
MIC [7]: 12.5 µg/mL
fractional inhibitory concentration index (FICI) [9]: 0.047
fractional inhibitory concentration index (FICI) [10]: 0.125
MIC [12]: 100 µg/mL
fractional inhibitory concentration index (FICI) [13]: 0.125
MIC [14]: > 100 µg/mL
fractional inhibitory concentration index (FICI) [16]: 0.125
MIC [17]: > 100 µg/mL
MIC [18]: ≥ 100 µg/mL
fractional inhibitory concentration index (FICI) [20]: <0.25
MIC [22]: 3.13 µg/mL
MIC [26]: 1 10^-4 ug/ml
fractional inhibitory concentration index (FICI) [27]: 0.125
fractional inhibitory concentration index (FICI) [28]: 0.266
fractional inhibitory concentration index (FICI) [29]: 0.125
MIC [31]: 50 µg/mL
fractional inhibitory concentration index (FICI) [34]: 0.156
MIC [35]: 25 µg/mL
fractional inhibitory concentration index (FICI) [36]: 0.312
MIC [37]: 50 µg/mL
MIC [38]: 0.2 µg/mL
fractional inhibitory concentration index (FICI) [39]: 0.125
MIC [40]: 50 µg/mL
